Data: the supplement of paper PMC8149375

Tests used:
Settings in all cases: treatment: drug + dasatinib (fixed dose, not stated); 5 days
TK-10 [1] = test: AUC of dose-response viability curve, drug + dasatinib, normalised to DMSO (arbitrary (AUC of normalised viability)); higher = less growth inhibition
Protocol: (§1)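 Primary HTS combination arm: 8 RCC cell lines treated with 8 doses (up to 10 uM) of each library drug plus a fixed dose of dasatinib (dose not stated) for 5 days; viability read by CellTiter-Glo and normalised to DMSO. GI50 was fitted with XLfit, AUC is the area under the dose-response curve, and minimum viability is the lowest fraction of DMSO viability across doses.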

UO-31 [2] = test: as above
Protocol: as §1

SN12C [3] = test: as above
Protocol: as §1

ACHN [4] = test: as above
Protocol: as §1

769-P [5] = test: as above
Protocol: as §1

786-O [6] = test: as above
Protocol: as §1

CAKI-1 [7] = test: as above
Protocol: as §1

A498 [8] = test: as above
Protocol: as §1

TK-10 [9] = test: minimum viability across doses, drug + dasatinib, relative to DMSO (fraction); higher = less growth inhibition
Protocol: as §1

UO-31 [10] = test: as above
Protocol: as §1

SN12C [11] = test: as above
Protocol: as §1

ACHN [12] = test: as above
Protocol: as §1

769-P [13] = test: as above
Protocol: as §1

786-O [14] = test: as above
Protocol: as §1

CAKI-1 [15] = test: as above
Protocol: as §1

A498 [16] = test: as above
Protocol: as §1

TK-10 [17] = test: GI50 of drug in presence of dasatinib; higher = less potent
Protocol: as §1

UO-31 [18] = test: as above
Protocol: as §1

SN12C [19] = test: as above
Protocol: as §1

ACHN [20] = test: as above
Protocol: as §1

769-P [21] = test: as above
Protocol: as §1

786-O [22] = test: as above
Protocol: as §1

CAKI-1 [23] = test: as above
Protocol: as §1

A498 [24] = test: as above
Protocol: as §1

Row | Compound | AUC of dose-response viability curve (TK-10 [1]) | AUC of dose-response viability curve (UO-31 [2]) | AUC of dose-response viability curve (SN12C [3]) | AUC of dose-response viability curve (ACHN [4]) | AUC of dose-response viability curve (769-P [5]) | AUC of dose-response viability curve (786-O [6]) | AUC of dose-response viability curve (CAKI-1 [7]) | AUC of dose-response viability curve (A498 [8]) | minimum viability across doses (TK-10 [9]) | minimum viability across doses (UO-31 [10]) | minimum viability across doses (SN12C [11]) | minimum viability across doses (ACHN [12]) | minimum viability across doses (769-P [13]) | minimum viability across doses (786-O [14]) | minimum viability across doses (CAKI-1 [15]) | minimum viability across doses (A498 [16]) | GI50 of drug (TK-10 [17]) | GI50 of drug (UO-31 [18]) | GI50 of drug (SN12C [19]) | GI50 of drug (ACHN [20]) | GI50 of drug (769-P [21]) | GI50 of drug (786-O [22]) | GI50 of drug (CAKI-1 [23]) | GI50 of drug (A498 [24])
1 | COc1ccc(COc2cc3oc(=O)c4cc(C(C)O)ccc4c3cc2OC)cc1 (stereo not drawn) [Palomid 529] + Cc1nc(Nc2ncc(C(=O)Nc3c(C)cccc3Cl)s2)cc(N2CCN(CCO)CC2)n1 [dasatinib] | 2.53 | 4.61 | 2.53 | 2.1 | 2.29 | 2.05 | 2.25 | 3.49 | 0.635 | 1.17 | 0.707 | 0.539 | 0.415 | 0.324 | 0.414 | 0.857 | > 10000 nM | > 10000 nM | > 10000 nM | > 10000 nM | 6220 nM | 2960 nM | 5940 nM | > 10000 nM
2 | CC(C)n1nc(-c2ccc3oc(N)nc3c2)c2c(N)ncnc21 [INK 128] + Cc1nc(Nc2ncc(C(=O)Nc3c(C)cccc3Cl)s2)cc(N2CCN(CCO)CC2)n1 [dasatinib] | 0.838 | 0.741 | 0.931 | 0.554 | 0.95 | 0.59 | 0.693 | 1.19 | 0.0156 | 0.00639 | 0.0733 | 0.0339 | 0.0625 | 0.00403 | 0.0244 | 0.0897 | 9.96 nM | 13.8 nM | 13.1 nM | 3.03 nM | 14.7 nM | 4.88 nM | 9.18 nM | 33.8 nM
3 | C[C@@H](N)[C@H]1CC[C@H](C(=O)Nc2ccncc2)CC1.Cl.Cl + Cc1nc(Nc2ncc(C(=O)Nc3c(C)cccc3Cl)s2)cc(N2CCN(CCO)CC2)n1 [dasatinib] | 2.98 | 3.41 | 2.5 | 2.61 | 2.34 | 2.82 | 2.31 | 3.4 | 0.754 | 0.697 | 0.657 | 0.673 | 0.588 | 0.699 | 0.584 | 0.877 | > 10000 nM | > 10000 nM | > 10000 nM | > 10000 nM | > 10000 nM | > 10000 nM | > 10000 nM | > 10000 nM
4 | O=c1c(O)c(-c2ccc(O)c(O)c2)oc2cc(O)cc(O)c12 [Quercetin (Sophoretin)] + Cc1nc(Nc2ncc(C(=O)Nc3c(C)cccc3Cl)s2)cc(N2CCN(CCO)CC2)n1 [dasatinib] | 2.47 | 3.51 | 2.52 | 2.14 | 2.42 | 1.89 | 2.35 | 3.26 | 0.67 | 0.844 | 0.692 | 0.56 | 0.618 | 0.45 | 0.576 | 0.879 | > 10000 nM | > 10000 nM | > 10000 nM | > 10000 nM | > 10000 nM | > 10000 nM | > 10000 nM | > 10000 nM
5 | O=C(Nc1cccc(Nc2ncc(Br)c(NCCc3cnc[nH]3)n2)c1)N1CCCC1 [BX-912] + Cc1nc(Nc2ncc(C(=O)Nc3c(C)cccc3Cl)s2)cc(N2CCN(CCO)CC2)n1 [dasatinib] | 2.25 | 3.19 | 2.23 | 1.9 | 2.3 | 1.78 | 1.8 | 2.97 | 0.144 | 0.288 | 0.0907 | 0.168 | 0.335 | 0.0673 | 0.0425 | 0.365 | 2590 nM | 9130 nM | 1180 nM | 1280 nM | 4600 nM | 937 nM | 502 nM | 5820 nM
6 | CN1CC[C@H](c2c(O)cc(O)c3c(=O)cc(-c4ccccc4Cl)oc23)[C@H](O)C1.Cl [Flavopiridol hydrochloride] + Cc1nc(Nc2ncc(C(=O)Nc3c(C)cccc3Cl)s2)cc(N2CCN(CCO)CC2)n1 [dasatinib] | 1.53 | 1.98 | 1.28 | 0.849 | 1.34 | 0.837 | 1.02 | 1.74 | 0.168 | 0.00894 | 0.00632 | 0.00412 | 0.0135 | 0.00472 | 0.0304 | 0.0115 | 119 nM | 252 nM | 106 nM | 24.5 nM | 86 nM | 34.9 nM | 33.6 nM | 171 nM
7 | COc1cccc2cc(-c3nc([C@H]4CC[C@H](C(=O)O)CC4)n4ncnc(N)c34)[nH]c12 [OSI-027] + Cc1nc(Nc2ncc(C(=O)Nc3c(C)cccc3Cl)s2)cc(N2CCN(CCO)CC2)n1 [dasatinib] | 2.23 | 2.91 | 2.05 | 1.67 | 2.25 | 1.84 | 1.65 | 3.08 | 0.152 | 0.00633 | 0.15 | 0.0877 | 0.227 | 0.0675 | 0.0226 | 0.139 | 1100 nM | 2240 nM | 1110 nM | 322 nM | 2380 nM | 252 nM | 341 nM | 4020 nM
